Active and inactive are the calls of the source. No cut-off for these calls is given here.
Legend:
Hepatocyte [1] = experiment: Inhibition of gluconeogenesis in Sprague-Dawley rat hepatocytes at 3 uM incubated for 1.5 hrs followed by sodium pyruvate and sodium lactate addition and measured after 4 hrs by colorimetric analysis relative to control; assay type: functional; details: time 5.5 hrs
Hepatocyte [2] = experiment: Inhibition of gluconeogenesis in Sprague-Dawley rat hepatocytes at 1 uM incubated for 1.5 hrs followed by sodium pyruvate and sodium lactate addition and measured after 4 hrs by colorimetric analysis relative to control; assay type: functional; details: time 5.5 hrs
Mus musculus = experiment: Inhibition of gluconeogenesis in CD-1 mouse assessed as decrease in blood glucose level at 50 mg/kg administered via gavage at 1 hr prior to pyruvate sodium challenge and measured for 2 hrs by pyruvate tolerance test; assay type: functional, organism-based; details: time 3.0 hrs
Hepatocyte [3] = experiment: Inhibition of gluconeogenesis in Sprague-Dawley rat hepatocytes at 0.3 uM incubated for 1.5 hrs followed by sodium pyruvate and sodium lactate addition and measured after 4 hrs by colorimetric analysis relative to control; assay type: functional; details: time 5.5 hrs
Hepatocyte [4] = experiment: Inhibition of gluconeogenesis in Sprague-Dawley rat hepatocytes at 10 uM incubated for 1.5 hrs followed by sodium pyruvate and sodium lactate addition and measured after 4 hrs by colorimetric analysis relative to control; assay type: functional; details: time 5.5 hrs

| SMILES | fold change (FC) (Hepatocyte [4]) | other results |
| --- | --- | --- |
| Cc1cc(Br)ccc1OCc1ccc(C(=O)O)o1 | 0.33 | fold change (FC) (Hepatocyte [1]): 0.37; fold change (FC) (Hepatocyte [2]): 1.01; inhibition (Mus musculus): Active; fold change (FC) (Hepatocyte [3]): 0.93 |
| COc1cc(CC(=O)N(C)C)ccc1OCc1ccc(C(=O)O)o1 | 1.15 |  |
| C=CCc1ccc(OCc2ccc(C(=O)O)s2)c(OC)c1 | 1.05 |  |
| C=CCc1ccc(OCc2ccc(C(=O)N(C)C)o2)c(OC)c1 | 0.87 |  |
| C=CCc1ccc(OCc2ccc(C(=O)N3CCOCC3)o2)c(OC)c1 | 0.97 |  |
| CNC(=O)CCc1ccc(OCc2ccc(C(=O)O)o2)c(OC)c1 | 0.98 |  |
| C=CCc1ccc(OCc2ccc(C(=O)N3CCN(C)CC3)o2)c(OC)c1 | 0.98 |  |
| CCCc1cccc(OC)c1OCc1ccc(C(=O)O)o1 | 0.67 |  |
| CCCc1ccc(OCc2ccc(C(=O)O)o2)c(OC(C)C)c1 | 1.25 |  |

From ChEMBL document CHEMBL5344411, “Phenotypic screening-based drug discovery of furan-2-carboxylic acid derivatives for the amelioration of type 2 diabetes mellitus (T2DM)” (Eur J Med Chem, 2023)
